Reference: patent publication US20110123530A1, “COMPOSITIONS AND METHODS FOR TREATING AND DIAGNOSING ASTHMA” (priority 2008, published 2011)

Test system: serum CEA
Assay: Serum CEA ELISA
Format: in vivo, human
Details: asthmatics on inhaled corticosteroids (N = 51) vs No ICS (N = 49)
Protocol: Serum IgE was measured by UCSF clinical laboratories or by ELISA using a human serum IgE ELISA kit according to manufacturer's instructions (Bethyl Laboratories). Serum CEA was measured using a human serum CEA ELISA kit according to manufacturer's instructions (Alpco Diagnostics). We developed an electrochemiluminescent assay (ECLA) to measure serum periostin using anti-periostin antibodies (R&D systems). Briefly, monoclonal anti-periostin was coated onto plates at 1.5 micrograms/ml in sodium carbonate buffer, pH 9.6 overnight at 4° C. Plates were blocked in assay buffer (1×PBS pH 7.4, 0.35 M NaCl, 0.5% BSA, 0.05% Tween 20, 0.25% CHAPS, 5 mM EDTA, 15PPM Proclin)+3% BSA for 2 hours at room temperature, then washed 4× with TBST (Tris-buffered saline+0.1% Tween-20). Serum was diluted 1:5 in assay buffer and incubated with agitation at room temperature for 2 h, then washed 4× with TBST. Recombinant periostin (R&D Systems) was used to establish a standard range. […] Reading buffer (Meso Scale Devices) was added and electrochemiluminescence was read (Meso Scale Devices). […] In addition, we measured IgE and YKL-40, a serum marker previously described to be elevated in some asthmatics, in these same sera. […]

SMILES: CCC(=O)O[C@]1(C(=O)SCF)[C@H](C)C[C@H]2[C@@H]3C[C@H](F)C4=CC(=O)C=C[C@]4(C)[C@@]3(F)[C@@H](O)C[C@@]21C [fluticasone, fluticasone propionate]
- CEA, level of serum biomarker, median (range): 1.9 (<0.2-21*) ng/ml
